Laboratory results published in US3996150A, “Ester compounds” (Lever Brothers Company, priority 1975, dated 1976).

Key:
[1] = Terg-O-Tometer stain removal test of detergent product containing the detergent solvent, rated visually; design: key: 0: complete removal; 1: Very slight remaining stain; 2: Slight remaining stain; 3: Moderate stain removal; 4: Poor stain removal; 5: Very poor stain removal; 6: Equal to original stain; details: 4.0% detergent solvent in detergent product; 5% solution 15 min, then 20 min wash at 0.144%; 120° F, 180 ppm hardness
Method: Four Dacron/cotton (65-35%) Khaki permanent press (Pants weight) test pieces (41/2 inches×6 inches) are first soiled by adding 3 drops of dirty crankcase motor oil on the center of the cloth and the stain allowed to set for one hour. The test cloths are then washed in the Terg-O-Tometerat 120° F, 180 ppm (2:1 Ca^+^+/Mg^+^+) hardness, 90 cycles per minute agitation, with a 5% solution of the detergent product described below (i.e., 50 g/liter) for 15 minutes and then hand squeezed to remove excess water. Finally the cloths are given a 20 minute wash at the standard use level (e.g. 0.144%) under the same conditions followed by a 1 minute rinse. After drying the washed cloths, the degree of stain removal is rated visually according to the scale below:
1 = Very slight remaining stain
2 = Slight remaining stain
3 = Moderate stain removal
5 = Very poor stain removal
6 = Equal to original stain
Ten such formulations utilizing the following "Detergent Solvents" were prepared and evaluated as described above: […]

[2] = Cold resistance of plasticized polyvinyl chloride film; assay type: physicochemical; details: PVC film 1.3 mm, 65 parts plasticizer per 100 parts S-PVC resin
Method: Tri(2-ethylhexyl) carboxymethyloxysuccinate was incorporated as a plasticizer in the preparation of polyvinyl chloride film as follows
Using a mixing roller at 170° (7 min.) followed by post-pressing the film at 170° C under contact pressure for 2 minutes, a good plasticized film (1.3 mm) of polyvinyl chloride was obtained. Cold resistance was -39° C compared to -36° C for a control PVC film made using di-2-ethylhexyl phthalate (DOP) as the plasticizer.

[3] = parent compound from which the esters are derived; cited from earlier work
[4] = parent compound from which the esters are derived; cited from earlier work; remark: listed apart in the source
[5] = under both aerobic and anaerobic conditions; cited from earlier work

Structure (SMILES) | Visual Grading Code (degree of stain removal) [1] | also measured
CCCCOC(=O)c1ccccc1C(=O)OCCCC [A, dibutyl phthalate, reference compound] | 2 | 
COC(=O)COC(CC(=O)OC)C(=O)OC (centres unmarked) [B, trimethyl carboxymethyloxysuccinate] | 2 | 
CCOC(=O)COC(CC(=O)OCC)C(=O)OCC (centres unmarked) [C, triethyl carboxymethyloxysuccinate] | 1 | 
CCCOC(=O)COC(CC(=O)OCCC)C(=O)OCCC (centres unmarked) [D, tripropyl carboxymethyloxysuccinate] | 1 | 
CCCCOC(=O)COC(CC(=O)OCCCC)C(=O)OCCCC (centres unmarked) [E, tributyl carboxymethyloxysuccinate] | 2 | 
CCCCCCOC(=O)COC(CC(=O)OCCCCCC)C(=O)OCCCCCC (centres unmarked) [F, trihexyl carboxymethyloxysuccinate] | 1 | 
CCCCC(CC)COC(=O)COC(CC(=O)OCC(CC)CCCC)C(=O)OCC(CC)CCCC (centres unmarked) [G, tri(2-ethylhexyl) carboxymethyloxysuccinate] | 2 | Cold resistance [2]: -39 °C
CCCCCCCCOC(=O)COC(CC(=O)OCCCCCCCC)C(=O)OCCCCCCCC (centres unmarked) [H, trioctyl carboxymethyloxysuccinate] | 2 | 
CCCCCCCCCCCCOC(=O)COC(CC(=O)OCCCCCCCCCCCC)C(=O)OCCCCCCCCCCCC (centres unmarked) [J, tridodecyl carboxymethyloxysuccinate] | 2 | 
O=C(O)COC(CC(=O)O)C(=O)O (centres unmarked) [carboxymethyloxysuccinic acid] |  | teratogenicity [3]: non-teratogenic; toxicity [4]: non-toxic; biodegradability [5]: completely biodegradable
CCCCC(CC)COC(=O)c1ccccc1C(=O)OCC(CC)CCCC (centres unmarked) [di-2-ethylhexyl phthalate, reference compound] |  | Cold resistance [2]: -36 °C
